Results taken from patent US20250352445A1, “COMPOSITIONS FOR SEBUM CONTROL” (Dyson Operations Pte. Ltd., priority 2022, published 2025).

Tested on: Primary sebocytes
Assay: Lipid reduction in primary sebocytes, AdipoRed dye, mean fluorescence intensity by flow cytometry
Assay type: cell-based, human
Details: primary sebocytes incubated 3 days, 10 μM for the compound, 31.25 μg/mL for the extract, average of 10,000 cells
Method: Primary sebocytes were derived from the forehead of a person. The same cell line was used in all experiments. Flow cytometry experiments were conducted on the BD LSR Fortessa X-20 as follows: Sebocytes stained with a lipid dye (AdipoRed™) were first analyzed according to size and granularity with only single cells selected for AdipoRed™ signal intensity measurement. […] Cells treated with compositions of the invention were compared to vehicle-treated cells to determine the percentage of lipid reduction. […] The cells were washed with PBS buffer [5 mL for a 10 cm culture plate] and then incubated at 37° C. with 0.125% Trypsin-EDTA (Gibco, 15400054) [2 mL of Trypsin for a 10 cm culture plate] for 5-10 minutes. […] When all cells had detached, fixative solution (250 μL; […] The tubes were stored on ice before flow cytometry. Mean fluorescence intensity of the lipid signal can be obtained from the flow cytometer plot which are used to determine the inhibitory effect of the compounds on the sebocytes. The lipid reduction effects of the compositions of the invention were measured against DMSO as a negative control, and against the known lipid-reducing compounds epigallocatechin gallate (EGCG) and salicylic acid (SA) as positive controls. The results are shown in Table 3 and FIGS. 1 to 7.

For `O=C(O[C@@H]1Cc2c(O)cc(O)cc2O[C@@H]1c1cc(O)c(O)c(O)c1)c1cc(O)c(O)c(O)c1` [EGCG, epigallocatechin gallate], the “Percentage Reduction in Mean Fluorescence Intensity (Against DMSO Control)” value was 13.4%.
